According to ChEMBL document CHEMBL3864164, “II. Discovery of a novel series of CXCR3 antagonists with a beta amino acid core” (Bioorg Med Chem Lett, 2016):
≈ marks a conversion by molar mass, not a printed value.

Tests used:
[1] = Drug degradation in solid phase after few months; format: physicochemical; details: read-out: Drug degradation
[2] = Solubility of the compound at pH 1.1 to 7.4; format: physicochemical; details: buffer
[3] = Absolute oral bioavailability in Balb/c mouse at 10 mg/kg; format: ADME, organism-based; details: in vivo

SMILES | degraded [1] [%] | solubility [2] [µM] | bioavailability [3] [%]
CCc1cc(CN(CC2CCCC2)[C@@H](CC(=O)O)c2ccc(Cl)cc2)ccc1OCCN1C(=O)CCC1=O | 5 to 7 | 3000 (≈ 1620 µg/mL) | 
Cc1cc(CN(CC2CCCC2)[C@@H](CC(=O)O)c2ccc(Cl)cc2)ccc1OCCN1C(=O)CCC1=O | 5 to 7 | 3000 (≈ 1580 µg/mL) | 14
CCCN(Cc1ccc(OCCN2C(=O)CCC2=O)c(C)c1)C(c1ccc(Cl)cc1)C1(C(=O)O)CC1 (configuration not stated) | 5 to 7 | 3000 (≈ 1540 µg/mL) | 
COc1cc(CN(CC(C)C)C(CC(=O)O)c2ccc(Cl)c(Cl)c2)ccc1OCCN1C(=O)CCC1=O (configuration not stated) | 5 to 7 | 3000 (≈ 1650 µg/mL) | 
Cc1cc(CN(C2CCC2)C(CC(=O)O)c2ccc(Cl)cc2)ccc1OCCn1c(=O)ccn(C)c1=O (configuration not stated) | 5 to 7 | 3000 (≈ 1580 µg/mL) | 
CCCN(Cc1ccc(OCCN2C(=O)CCC2=O)c(C)c1)[C@@H](CC(=O)O)c1ccc(Cl)cc1 | 5 to 7 | 3000 (≈ 1460 µg/mL) | 
Cc1cc(CN(CC(C)C)C(CC(=O)O)c2ccc3c(c2)CCO3)ccc1OCCN1C(=O)CCC1=O (configuration not stated) | 5 to 7 | 3000 (≈ 1530 µg/mL) | 
Cc1cc(CN(CC(C)C)[C@@H](CC(=O)O)c2ccc(Cl)cc2)ccc1OCCN1C(=O)CCC1=O | 5 to 7 | 3000 (≈ 1500 µg/mL) | 
CCCN(Cc1ccc(OCCn2c(=O)ccn(C)c2=O)c(C)c1)C(CC(=O)O)c1ccc(Cl)cc1 (configuration not stated) | 5 to 7 | 3000 (≈ 1540 µg/mL) | 
COc1cc(CN(CC(C)C)C(CC(=O)O)c2ccc(Cl)cc2)ccc1OCCN1C(=O)CCC1=O (configuration not stated) | 5 to 7 | 3000 (≈ 1550 µg/mL) | 
COc1cc(CN(CC(C)C)[C@@H](CC(=O)O)c2ccc(Cl)cc2)ccc1OCCn1c(=O)ccn(C)c1=O | 5 to 7 | 3000 (≈ 1630 µg/mL) | 
C[C@@H](c1ccc(Cl)cc1)N(Cc1ccc(OCCN2C(=O)CCC2=O)c(C(=O)O)c1)CC1CCCC1 | 5 to 7 | 3000 (≈ 1540 µg/mL) | 
Cl.O=C(O)C[C@@H](c1ccc(Cl)c(F)c1)N(Cc1ccc(OCCN2C(=O)CCC2=O)c(F)c1)CC1CC1 | 5 to 7 | 3000 | 70
Cc1cc(CN(CC(C)C)C(CC(=O)O)c2ccc(Cl)cc2Cl)ccc1OCCN1C(=O)CCC1=O (configuration not stated) | 5 to 7 | 3000 (≈ 1610 µg/mL) | 
COc1cc(CN(C2CCC2)C(CC(=O)O)c2ccc(Cl)cc2)ccc1OCCn1c(=O)ccn(C)c1=O (configuration not stated) | 5 to 7 | 3000 (≈ 1630 µg/mL) | 
CCN(Cc1ccc(OCCN2C(=O)CCC2=O)c(C)c1)C(CC(=O)O)c1ccc(Cl)cc1 (configuration not stated) | 5 to 7 | 3000 (≈ 1420 µg/mL) | 
Cc1cc(CN(CC(C)C)[C@@H](CC(=O)O)c2ccc(Cl)c(F)c2)ccc1OCCN1C(=O)CCC1=O.Cl | 5 to 7 | 3000 | 
Cc1cc(CN(C)C(CC(=O)O)c2ccc(Cl)cc2)ccc1OCCn1c(=O)ccn(C)c1=O (configuration not stated) | 5 to 7 | 3000 (≈ 1460 µg/mL) | 
COc1cc(CN(CC(C)C)[C@H](CC(=O)O)c2ccc(Cl)cc2)ccc1OCCn1c(=O)ccn(C)c1=O | 5 to 7 | 3000 (≈ 1630 µg/mL) | 

SMILES | degraded [1] [%] | solubility [2] [µM] | bioavailability [3] [%]
COc1cc(CN(CC(C)C)C(CC(=O)O)c2ccc(Cl)cc2)ccc1OCCn1c(=O)ccn(C)c1=O (configuration not stated) | 5 to 7 | 3000 (≈ 1630 µg/mL) | 
Cc1cc(CN(CC(C)C)C(CC(=O)O)c2ccc(Cl)cc2)ccc1OCCN1C(=O)CCC1=O (configuration not stated) | 5 to 7 | 3000 (≈ 1500 µg/mL) | 
CCCCN(Cc1ccc(OCCn2c(=O)ccn(C)c2=O)c(OC)c1)C(CC(=O)O)c1ccc2c(c1)CCO2 (configuration not stated) | 5 to 7 | 3000 (≈ 1650 µg/mL) | 
CCCN(Cc1ccc(OCCN2C(=O)CCC2=O)c(C)c1)C(CC(=O)O)c1ccc(Cl)s1.Cl (configuration not stated) | 5 to 7 | 3000 | 
CCCN(Cc1ccc(OCCN2C(=O)CCC2=O)c(OC)c1)C(c1ccc(Cl)cc1)C(C)C(=O)O (configuration not stated) | 5 to 7 | 3000 (≈ 1550 µg/mL) | 
COc1cc(CN(CC(C)C)C(CC(=O)O)c2ccc(Cl)c(F)c2)ccc1OCCN1C(=O)CCC1=O (configuration not stated) | 5 to 7 | 3000 (≈ 1610 µg/mL) | 
CCCN(Cc1ccc(OCCN2C(=O)CCC2=O)c(C)c1)[C@H](CC(=O)O)c1ccc(Cl)cc1 | 5 to 7 | 3000 (≈ 1460 µg/mL) | 
Cc1cc(CN(CC2CC2)[C@@H](CC(=O)O)c2ccc(Cl)cc2)ccc1OCCN1C(=O)CCC1=O | 5 to 7 | 3000 (≈ 1500 µg/mL) | 
Cc1cc(CN(CC(C)C)C(CC(=O)O)c2ccc(Cl)c(F)c2)ccc1OCCN1C(=O)CCC1=O (configuration not stated) | 5 to 7 | 3000 (≈ 1560 µg/mL) | 
COc1cc(CN(CC2CC2)C(CC(=O)O)c2ccc3c(c2)CCO3)ccc1OCCn1c(=O)ccn(C)c1=O (configuration not stated) | 5 to 7 | 3000 (≈ 1650 µg/mL) | 
CCCN(Cc1ccc(OCCn2c(=O)ccn(C)c2=O)c(OC)c1)C(CC(=O)O)c1ccc(Cl)cc1 (configuration not stated) | 5 to 7 | 3000 (≈ 1590 µg/mL) | 
CCCN(Cc1ccc(OCCN2C(=O)CCC2=O)c(OC)c1)C(CC)c1ccc(Cl)c(C(=O)O)c1 (configuration not stated) | 5 to 7 | 3000 (≈ 1550 µg/mL) | 
COc1cc(CN(CC2CC2)[C@@H](CC(=O)O)c2ccc(Cl)c(F)c2)ccc1OCCN1C(=O)CCC1=O.Cl | 5 to 7 | 3000 | 5.4
Cc1cc(CN(C2CCC2)C(CC(=O)O)c2ccc(Cl)cc2)ccc1OCCN1C(=O)CCC1=O (configuration not stated) | 5 to 7 | 3000 (≈ 1500 µg/mL) | 
COc1cc(CN(CC2CC2)C(CC(=O)O)c2ccc(Cl)cc2)ccc1OCCn1c(=O)ccn(C)c1=O (configuration not stated) | 5 to 7 | 3000 (≈ 1630 µg/mL) | 
Cc1cc(CN(CCC(F)(F)F)C(CC(=O)O)c2ccc(Cl)cc2)ccc1OCCN1C(=O)CCC1=O (configuration not stated) | 5 to 7 | 3000 (≈ 1620 µg/mL) | 
CCN(Cc1ccc(OCCn2c(=O)ccn(C)c2=O)c(OC)c1)C(CC(=O)O)c1ccc(Cl)cc1 (configuration not stated) | 5 to 7 | 3000 (≈ 1550 µg/mL) | 
CCCCN(Cc1ccc(OCCN2C(=O)CCC2=O)c(C)c1)C(CC(=O)O)c1ccc(Cl)cc1 (configuration not stated) | 5 to 7 | 3000 (≈ 1500 µg/mL) | 
Cc1cc(CN(CC2CCCCC2)C(CC(=O)O)c2ccc(Cl)cc2)ccc1OCCN1C(=O)CCC1=O (configuration not stated) | 5 to 7 | 3000 (≈ 1620 µg/mL) | 

SMILES | degraded [1] [%] | solubility [2] [µM] | bioavailability [3] [%]
CCCN(Cc1ccc(OCCN2C(=O)CCC2=O)c(OC)c1)C(C(=O)O)c1ccc(Cl)cc1 (configuration not stated) | 5 to 7 | 3000 (≈ 1470 µg/mL) | 
Cc1cc(CN(CC(C)C)C(CC(=O)O)c2ccc(Cl)c(Cl)c2)ccc1OCCN1C(=O)CCC1=O (configuration not stated) | 5 to 7 | 3000 (≈ 1610 µg/mL) | 
CCN(Cc1ccc(OCCn2c(=O)ccn(C)c2=O)c(C)c1)C(CC(=O)O)c1ccc(Cl)cc1 (configuration not stated) | 5 to 7 | 3000 (≈ 1500 µg/mL) | 
CCCN(Cc1ccc(OCCN2C(=O)CCC2=O)c(C)c1)C(CC(=O)O)c1ccc(Cl)cc1 (configuration not stated) | 5 to 7 | 3000 (≈ 1460 µg/mL) | 
COc1cc(CN(CC2CCCC2)[C@@H](CC(=O)O)c2ccc(Cl)c(F)c2)ccc1OCCN1C(=O)CCC1=O | 5 to 7 | 3000 (≈ 1680 µg/mL) | 
Cc1cc(CN(CC2CCCC2)C(CC(=O)O)c2ccc(Cl)cc2)ccc1OCCN1C(=O)CCC1=O (configuration not stated) | 5 to 7 | 3000 (≈ 1580 µg/mL) | 
COc1cc(CN(CC(C)C)C(CC(=O)O)c2ccc(Cl)cc2Cl)ccc1OCCN1C(=O)CCC1=O (configuration not stated) | 5 to 7 | 3000 (≈ 1650 µg/mL) | 
Cl.O=C(O)C[C@@H](c1ccc(Cl)c(Cl)c1)N(Cc1ccc(OCCN2C(=O)CCC2=O)c(F)c1)CC1CC1 | 5 to 7 | 3000 | 64
Cc1cc(CN(CC2CC2)C(CC(=O)O)c2ccc(Cl)cc2)ccc1OCCn1c(=O)ccn(C)c1=O (configuration not stated) | 5 to 7 | 3000 (≈ 1580 µg/mL) | 
CCCCN(Cc1ccc(OCCn2c(=O)ccn(C)c2=O)c(OC)c1)C(CC(=O)O)c1ccc(Cl)cc1 (configuration not stated) | 5 to 7 | 3000 (≈ 1630 µg/mL) | 
COc1cc(CN(CC(C)C)C(CC(=O)O)c2ccc3c(c2)CCO3)ccc1OCCn1c(=O)ccn(C)c1=O (configuration not stated) | 5 to 7 | 3000 (≈ 1650 µg/mL) | 
COc1cc(CN(CC(C)C)C(CC(=O)O)c2ccc3c(c2)CCO3)ccc1OCCN1C(=O)CCC1=O (configuration not stated) | 5 to 7 | 3000 (≈ 1570 µg/mL) | 
Cc1cc(CN(CC2CCCC2)[C@@H](CC(=O)O)c2ccc(Cl)c(F)c2)ccc1OCCN1C(=O)CCC1=O.Cl | 5 to 7 | 3000 | 
CCCN(Cc1ccc(OCCn2c(=O)ccn(C)c2=O)c(OC)c1)C(CC(=O)O)c1ccc2c(c1)CCO2 (configuration not stated) | 5 to 7 | 3000 (≈ 1610 µg/mL) | 
Cc1cc(CN(CC2CC2)C(CC(=O)O)c2ccc(Cl)cc2)ccc1OCCN1C(=O)CCC1=O (configuration not stated) | 5 to 7 | 3000 (≈ 1500 µg/mL) | 
Cl.O=C(O)C[C@@H](c1ccc(Cl)c(F)c1)N(Cc1ccc(OCCN2C(=O)CCC2=O)c(Cl)c1)CC1CC1 | 5 to 7 | 3000 | 35
CCCN(Cc1ccc(OCCN2C(=O)CCC2=O)c(C)c1)C1c2ccc(Cl)cc2CC1C(=O)O (configuration not stated) | 5 to 7 | 3000 (≈ 1500 µg/mL) | 
Cc1cc(CN(Cc2ccc(F)cc2)C(CC(=O)O)c2ccc(Cl)cc2)ccc1OCCN1C(=O)CCC1=O.Cl (configuration not stated) | 5 to 7 | 3000 | 
